Measured values published in ChEMBL document CHEMBL4342443, “Phloroglucinol Benzophenones and Xanthones from the Leaves of Garcinia cowa and Their Nitric Oxide Production and α-Glucosidase Inhibitory Activities” (J Nat Prod, 2020).
The source made the active and inactive calls. The rule behind the calls is not given here.

How the values were obtained:
Alpha glucosidase [1] = biological target: T1, Alpha glucosidase (Homo sapiens, UniProt O43451+P10253+P14410+Q2M2H8); test: Inhibition of alpha-glucosidase (unknown origin) using p-nitrophenyl alpha-D-glucoside as substrate preincubated for 0.5 hrs followed substrate addition and measured after 1 hr by colorimetric method; format: protein assay
RAW264.7 [2] = test: Inhibition of NO production in LPS-stimulated mouse RAW264.7 cells at > 100 uM incubated for 24 hrs by Griess reagent-based assay; format: functional, cell-based
RAW264.7 [3] = test: Inhibition of NO production in LPS-stimulated mouse RAW264.7 cells incubated for 24 hrs by Griess reagent-based assay; format: functional, cell-based; details: RAW264.7, 24 h
Alpha glucosidase [4] = biological target: T1, Alpha glucosidase; test: Inhibition of alpha-glucosidase (unknown origin) at > 100 uM using p-nitrophenyl alpha-D-glucoside as substrate preincubated for 0.5 hrs followed substrate addition and measured after 1 hr by colorimetric method; format: protein assay

SMILES	IC50 (Alpha glucosidase [1]) [µM]	IC50 (RAW264.7 [3]) [µM]	inhibition (Alpha glucosidase [4])	inhibition (RAW264.7 [2])
COc1c(O)cc2oc3cc(O)c(CC=C(C)C)c(O)c3c(=O)c2c1C/C=C(\C)CCC=C(C)C [COWANIN]	37.4	–	–	inactive
COc1c(O)cc2oc3cc(O)c(C/C=C(\C)CO)c(O)c3c(=O)c2c1C/C=C(\C)CCC=C(C)C	28.7	13.4	–	–
CC(C)(O)CCC[C@@]1(C)[C@H](CCC(C)(C)O)C[C@@]23CCC(C)(C)OC2=C(C(=O)c2ccccc2)C(=O)[C@@H]1C3=O	–	–	inactive	inactive
CC(C)=CCC/C(C)=C/CC/C(C)=C/CCC(C)(O)CCc1c(O)c(O)cc2oc3cc(O)cc(O)c3c(=O)c12 (racemic)	15.4	5.8	–	–
CC(C)=CCC/C(C)=C/CC/C(C)=C/Cc1c(O)c(O)cc2oc3cc(O)cc(O)c3c(=O)c12	76.2	–	–	inactive
CC(C)=CCC/C(C)=C/CCC(C)(O)CCc1c(O)c(O)cc2oc3cc(O)cc(O)c3c(=O)c12 (racemic)	25.4	7.7	–	–
N=C(N)NN [PIMAGEDINE]	–	19.9	–	–
CC(C)=CC[C@@H]1C[C@@]23CCC(C)(C)OC2=C(C(=O)c2ccccc2)C(=O)[C@H](C3=O)[C@@]1(C)CCCC(C)(C)O	–	11	inactive	–

Now from value to molecule, other results behind:

IC50 (Alpha glucosidase [1]) [µM]	IC50 (RAW264.7 [3]) [µM]	inhibition (Alpha glucosidase [4])	SMILES	inhibition (RAW264.7 [2])
11.4	18.6	–	COc1c(O)cc2oc3cc4c(c(O)c3c(=O)c2c1CC=C(C)C)C=CC(C)(C)O4 [MANGOSTANIN]	–
22.6	–	–	COc1cc2oc3cc(O)c(OC)c(CC=C(C)C)c3c(=O)c2c(O)c1CC=C(C)C	inactive
–	–	inactive	CC(C)=CCC/C(C)=C/Cc1c(O)cc2oc3c(O)cccc3c(=O)c2c1O	inactive
–	5.4	inactive	COc1c(O)cc2oc3cc(O)c(CCC(C)(C)O)c(O)c3c(=O)c2c1CC=C(C)C	–
–	–	inactive	CC1(C)CCc2c(cc3oc4c(O)c(O)ccc4c(=O)c3c2O)O1	inactive
